Where a name gives a salt, the structure may show the parent alone.
Assays:
[1] = tested on: C. elegans CL4176; experiment: Toxicity on growth and development (body length) of C. elegans; type: in vivo, Caenorhabditis elegans; conditions: Example 2, FIG. 1
Description: C. elegans are sensitive to environmental changes, and drug toxicity can be accurately evaluated by using C. elegans. The body length is one of the most commonly used indictors of developmental toxicity.
After the end of paralysis experiment, worms were immediately placed at 50° C. for 15 min to straighten the body of every worm. The worms were observed and photographed under a microscope, and measured the length of every worm using MvImage system.

[2] = tested on: transgenic C. elegans strain CL4176 expressing human Aβ; conditions: 2.16 mg/mL; it has been reported; cited from earlier work
[3] = tested on: transgenic C. elegans strain CL4176 expressing human Aβ; experiment: Aβ-induced paralysis in transgenic C. elegans strain CL4176; type: in vivo, Caenorhabditis elegans; conditions: Example 2, FIG. 1, dose-dependent
Text: The present invention employed the transgenic C. elegans strain CL4176 as a pathological model to evaluate the effect of the Chinese medicine and DXN on preventing or treating AD. The principle of Aβ theory of AD is based on that Aβ aggregates in the cerebral cortex and hippocampus and subsequently forms senile plaques (SP), which is one of the most major pathological features of AD. Toxic Aβ can effectively weaken the structure and function of synapses, and cause memory impairment on the AD patients. Transgenic C. elegans strain CL4176 which expresses the human Aβ species in the muscle tissue that can induce Aβ-dependent paralysis at 25° C. was used in the present invention. Aβ aggregates in the muscle tissue, eventually resulting in the paralysis of CL4176. The medicament acts on C. elegans strain CL4176.
(1) C. elegans CL4176 is purchased from Caenorhabditis Genetics Center; which is a transgenic strain and muscle-specific expression of human Aβ can be induced at 25° C., and Aβ is aggregated in muscle tissue, resulting in the paralysis of C. elegans. CL4176 worm was used in the invention as a pathological model to screen and evaluate the anti-AD actions of the Chinese medicine compositions and DXN.
The synchronized C. elegans eggs were placed onto solid NGM coated with OP50 and containing different concentration of Memantine Hydrochloride. The blank control is a NMG medium coated with OP50 and added with the same volume of ddH2O to replace the Memantine Hydrochloride. The worms were cultured at 16° C. for 3 days to L3 larvae (about 60 worms per plate). The results are presented as the average of three biological replicates.
In order to induce the Aβ expression, the culture temperature of transgenic L3 larvae C. elegans CL4176 was shifted from 16° C. to 25° C. for 34 h. Then paralysis individuals were counted under a dissecting stereo microscope at 2 h intervals until all worms became paralyzed.
The synchronized C. elegans eggs were placed onto solid NGM coated with OP50 and containing working concentration of the Chinese medicine compositions. […]

## CC12CC3CC(C)(C1)CC(N)(C3)C2 [Menantine Hydrochloride, 1-amino-3,5-dimethyl amantadine hydrochloride]
[1]; 107.88 m/mL in NGM
  inhibition of development of C. elegans: strongly inhibit the development
[1]; 215.76 m/mL in NGM
  inhibition of development of C. elegans: strongly inhibit the development
[2]
  delay of Aβ-induced paralysis in transgenic CL4176 (reported): significantly delay Aβ-induced paralysis
[3]; 4.32 μg/mL in NGM
  delay of Aβ-induced paralysis of CL4176: significantly delayed the paralysis
[3]; 0.86m/mL in NGM
  delay of Aβ-induced paralysis of CL4176: significantly delayed the paralysis
[3]; 21.58m/mL in NGM
  delay of Aβ-induced paralysis of CL4176: significantly delayed the paralysis

— patent US20170157192A1, “USE OF THE CHINESE MEDICINE COMPOSITION AND DIANXIANNING IN THE PREPARATION OF A MEDICAMENT FOR PREVENTING OR TREATING ALZHEIMER'S DISEASES” (Lanzhou University, priority 2014, published 2017)
